Results taken from EP0151939A2, “Pyrimidinediones and dihydroxypyrimidines, and process for the preparation of pyrimidinedones and dihydroxypyrimidines” (BAYER AG, priority 1984, dated 1985).

What was measured:
Type in all cases: in vivo
[1] = test system: Mais; test: Pre-emergence test; details: 2 kg/ha, rated after three weeks
Description: (§1) Losungsmittel: 5 Gewichtsteile Aceton Emulgator: 1 Gewichtsteil Alkylarylpolyglykolether
(§2) Zur Herstellung einer zweckmäßigen Wirkstoffzubereitung vermischt man 1 Gewichtsteil Wirkstoff mit der angegebenen Menge Lösungsmittel, gibt die angegebene Menge Emulgator zu und verdünnt das Konzentrat mit Wasser auf die gewünschte Konzentration.
(§3) Samen der Testpflanzen werden in normalen Boden ausgesät und nach 24 Stunden mit der Wirkstoffzubereitung begossen. Dabei hält man die Wassermenge pro Flächeneinheit zweckmäßigerweise konstant. Die Wirkstoffkonzentration in der Zubereitung spielt keine Rolle, entscheidend ist nur die Aufwandmenge des Wirkstoffs pro Flächeneinheit. Nach drei Wochen wird der Schädigungsgrad der Pflanzen bonitiert.

[2] = test system: Hafer; test: Pre-emergence test; details: 2 kg/ha, rated after three weeks
Description: as §1, §2, §3

[3] = test system: Weizen; test: Pre-emergence test; details: 2 kg/ha, rated after three weeks
Description: as §1, §2, §3

[4] = test system: Senf; test: Pre-emergence test; details: 2 kg/ha, rated after three weeks
Description: as §1, §2, §3

[5] = test system: Hirse; test: Pre-emergence test; details: 2 kg/ha, rated after three weeks
Description: as §1, §2, §3

[6] = test system: Mais; test: Post-emergence test; details: 1 kg/ha, rated after three weeks
Description: as §2, with “Lösungsmittel: 5 Gewichtsteile Aceton Emulgator: 1 Gewichtsteil Alkylarylpolyglykolether Zur” for “Zur”
(§4) Mit der Wirkstoffzubereitung spritzt man Testpflanzen, welche eine Höhe von 5 - 15 cm haben so, daß die jeweils gewünschten Wirkstoffmengen pro Flächeneinheit ausgebracht werden. Die Konzentration der Spritzbrühe wird so gewählt, daß in 2000 1 Wasser/ha die jeweils gewünschten Wirkstoffmengen ausgebracht werden. Nach drei Wochen wird der Schädigungsgrad der Pflanzen bonitiert.

[7] = test system: Hafer; test: Post-emergence test; details: 1 kg/ha, rated after three weeks
Description: as §2, with “Lösungsmittel: 5 Gewichtsteile Aceton Emulgator: 1 Gewichtsteil Alkylarylpolyglykolether Zur” for “Zur”
as §4

[8] = test system: Weizen; test: Post-emergence test; details: 1 kg/ha, rated after three weeks
Description: as §2, with “Lösungsmittel: 5 Gewichtsteile Aceton Emulgator: 1 Gewichtsteil Alkylarylpolyglykolether Zur” for “Zur”
as §4

[9] = test system: Baumwolle; test: Post-emergence test; details: 1 kg/ha, rated after three weeks
Description: as §2, with “Lösungsmittel: 5 Gewichtsteile Aceton Emulgator: 1 Gewichtsteil Alkylarylpolyglykolether Zur” for “Zur”
as §4

[10] = test system: Senf; test: Post-emergence test; details: 1 kg/ha, rated after three weeks
Description: as §2, with “Lösungsmittel: 5 Gewichtsteile Aceton Emulgator: 1 Gewichtsteil Alkylarylpolyglykolether Zur” for “Zur”
as §4

[11] = test system: Bohnen; test: Post-emergence test; details: 1 kg/ha, rated after three weeks
Description: as §2, with “Lösungsmittel: 5 Gewichtsteile Aceton Emulgator: 1 Gewichtsteil Alkylarylpolyglykolether Zur” for “Zur”
as §4

[12] = test system: Rüben; test: Post-emergence test; details: 1 kg/ha, rated after three weeks
Description: as §2, with “Lösungsmittel: 5 Gewichtsteile Aceton Emulgator: 1 Gewichtsteil Alkylarylpolyglykolether Zur” for “Zur”
as §4

[13] = test system: Rüben; test: Pre-emergence test; details: 2 kg/ha, rated after three weeks
Description: as §1, §2, §3

| SMILES | Wirkung (Schädigungsgrad der Pflanzen) [1] | Wirkung (Schädigungsgrad der Pflanzen) [2] | Wirkung (Schädigungsgrad der Pflanzen) [3] | Wirkung (Schädigungsgrad der Pflanzen) [4] | Wirkung (Schädigungsgrad der Pflanzen) [5] | Wirkung (Schädigungsgrad der Pflanzen) [6] | Wirkung (Schädigungsgrad der Pflanzen) [7] | Wirkung (Schädigungsgrad der Pflanzen) [8] | Wirkung (Schädigungsgrad der Pflanzen) [9] | Wirkung (Schädigungsgrad der Pflanzen) [10] | Wirkung (Schädigungsgrad der Pflanzen) [11] | Wirkung (Schädigungsgrad der Pflanzen) [12] | Wirkung (Schädigungsgrad der Pflanzen) [13] |
| --- | --- | --- | --- | --- | --- | --- | --- | --- | --- | --- | --- | --- | --- |
| O=c1[nH]c(C(F)(Cl)Cl)c(Cl)c(=O)[nH]1 [Produkt aus Beispiel 16] | praktisch nicht | praktisch nicht | praktisch nicht | zum größeren Teil vernichtet | praktisch nicht | – | – | – | – | – | – | – | – |
| O=c1[nH]c(C(F)(F)F)c(Cl)c(=O)[nH]1 [Produkt aus Beispiel 13, 5-Chlor-6-trifluor-2,4-(lH,3H)-pyrimidindion] | – | – | – | – | – | voll-ständig oder nahezu vollständig vernichtet | praktisch nicht | praktisch nicht | voll-ständig oder nahezu vollständig vernichtet | voll-ständig oder nahezu vollständig vernichtet | voll-ständig oder nahezu vollständig vernichtet | praktisch nicht | – |
| O=c1[nH]c(C(F)(F)F)c(F)c(=O)[nH]1 [Produkt aus Beispiel 5 und 14, 5-Fluor-6-trifluormethyl-2,4-(lH,3H)-pyrimidindion] | fast nicht | zum größeren Teil ver-nichtet | fast nicht | zum größeren Teil ver-nichtet | – | – | – | praktisch nicht | – | vollständig oder nahezu vollständig vernichtet | – | vollständig oder nahezu vollständig vernichtet | – |
| O=c1[nH]c(C(F)(F)Cl)c(Cl)c(=O)[nH]1 [Produkt aus Beispiel 15] | praktisch nicht | praktisch nicht | praktisch nicht | nahezu vollständig ver-nichtet | – | praktisch nicht | praktisch nicht | praktisch nicht | – | vollständig vernichtet | – | – | nahezu vollständig ver-nichtet |
